Measured values reported in patent US20220152090A1, “METHOD FOR TREATING AMYLOIDOGENIC DISEASE” (priority 2020, published 2022).

Legend:
Aβ42 = target: T1, Aβ42 (Homo sapiens, UniProt P05067); assay: Western blot of Aβ42 degradation in SH-SY5Y cells; format: cell-based; conditions: for LPS-induced degradation of Aβ42 in the presence of inhibitor: SH-SY5Y; for Aβ42 degradation in SH-SY5Y cells co-treated with the agent: Western blotting, FIG. 13
T1 construct: Aβ42 peptides were collected from the entire volume of the cell culture medium and total cell lysates; host or cells: Peptide added to the medium of SH-SY5Y cells; not made by the cells
T1 sequence (P05067 672-713 limits assumed): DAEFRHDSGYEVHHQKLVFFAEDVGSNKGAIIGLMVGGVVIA
Protocol: Western Blots. To assess the level of Aβ42 in the cell culture medium, Aβ42 peptides were collected from the entire volume of the cell culture medium and total cell lysates and mixed with protein sample buffer (final 0.1 M Tris-HCl, pH6.8, 10% glycerol, 2% SDS, 1% […], and 0.01% bromophenol blue) for Western blot analysis. The samples of cell mixture were analyzed by SDS-PAGE gel electrophoresis and transferred to a PVDF membrane (Millipore). After blocking with blocking buffer containing 5% w/v nonfat dry milk in PBST (1× phosphate-buffered saline and 0.1% Tween 20) at room temperature for 1 h, the membrane was incubated with a primary antibody diluted in the blocking buffer at 4° C. overnight. After hybridization with primary antibody, the membrane was washed three times with PBST before the addition of an HRP-conjugated secondary antibody against the primary antibody. The membrane was then washed three times with PBST before immunoreactive bands were detected by chemiluminescence (PerkinElmer) or Ponceau S staining (Bersting Technology).

SH-SY5Y cells = assay: Cell viability (CCK8) of Aβ42-treated neuronal cells; format: cell-based
Protocol: The general procedures used for preparing the transient LPS-Aβ42 complex and the validation of cell cytotoxicity were as follows. First, Aβ42 (100 μM) and LPS (1000 nM, derived from Escherichia coli O111:B4, Sigma-Aldrich) were added to each group medium containing 2.5% dimethyl sulfoxide (DMSO) and then sterilized by using UV light. The medium was then replaced and the remaining mixture was incubated for 72 hours at 37° C. in 5% CO2 humidified air. Cell viability was measured using the CCK8 (Sigma-Aldrich 96992) assay according to the manufacturer's protocol. A 0.22-μm filter (non-pyogenic, Millex®-GV) was used to remove unbound LPS, if needed, in the LPS-Aβ42 solution.
Cell viability. Neural cells were maintained in MEM (Gibco 11095-080) supplemented with 10% FBS and 1×MEM NEAA (Gibco 11140-050). Neural SH-SY5Y cells were plated at a density of 8000 cells per well in 96-well plates (Costar 3599) and allowed to attach overnight at 37° C. in 5% CO2 humidified air. Aβ42 (100 μM), LPS (1000 nM), SAuM (1000 nM), or colistin (1000 nM) were then added to each group medium containing 2.5% dimethyl sulfoxide (DMSO) and sterilized by using UV light. The medium was then replaced every day and the remaining mixture was incubated for 72 hours at 37° C. in 5% CO2 humidified air. Cell viability was measured using the CCK8 (Sigma-Aldrich 96992) assay according to the manufacturer's protocol. A 0.22-μm filter (non-pyogenic, Millex®-GV) was used to remove unbound LPS, if needed, in the LPS-Aβ42 solution.

Compound | LPS-induced degradation of Aβ42 in the presence of inhibitor (Aβ42) | rescue effect of LPS against Aβ42 neuronal toxicity in the presence of inhibitor (SH-SY5Y cells) | Aβ42 degradation in SH-SY5Y cells co-treated with the agent (Aβ42)
CN(C)CCCN1c2ccccc2Sc2ccc(Cl)cc21 [chlorpromazine] | suppressed |  | 
Cn1cnc(=N)c2[nH]cnc21 [3MA, methyladenine] | decreasing the degradation of Aβ42 | increasing the cell death | 
CO/C1=C\C(C)=C\[C@@H](C)[C@@H](O)[C@@H](C)C/C(C)=C/C=C/[C@H](OC)[C@@H]([C@@H](C)[C@@H](O)[C@H](C)[C@@]2(O)C[C@@H](O)[C@H](C)[C@@H](C(C)C)O2)OC1=O [BA, bafilomycin A1] | decreasing the degradation of Aβ42 | increasing the cell death | 
CCCCCCCCCCC[C@@H](O)CC(=O)N[C@H]1[C@H](OC[C@H]2OC(O)[C@H](NC(=O)C[C@H](O)CCCCCCCCCCC)[C@@H](OC(=O)C[C@H](O)CCCCCCCCCCC)[C@@H]2O)O[C@H](CO)[C@@H](OP(=O)(O)O)[C@@H]1OC(=O)C[C@H](O)CCCCCCCCCCC (stereo partly drawn) [PXI, 2-deoxy-6-O-(2-deoxy-3-O-[(3R)-3-hydroxytetradecanoyl]-2-{[(3R)-3-hydroxytetradecanoyl]amino}-4-O-phosphono-β-D-glucopyranosyl)-3-O-[(3R)-3-hydroxytetradecanoyl]-2-{[(3R)-3-hydroxytetradecanoyl]amino}-D-glucopyranose] |  |  | able to cause Aβ42 degradation
colistin |  | abolished | 
O=C(N/N=C/c1ccc(O)c(O)c1)c1cc2ccccc2cc1O [dynasore] | suppressed |  | 
methyl-β-cyclodextrin | suppressed |  | 
Monophosphoryl lipid A [MPL] |  |  | able to cause Aβ42 degradation
CCCCCCCCCCC[C@@H](O)CC(=O)N[C@H]1[C@H](OC[C@H]2O[C@H](OP(=O)(O)O)[C@H](NC(=O)C[C@H](O)CCCCCCCCCCC)[C@@H](OC(=O)C[C@H](O)CCCCCCCCCCC)[C@@H]2O)O[C@H](CO)[C@@H](OP(=O)(O)O)[C@@H]1OC(=O)C[C@H](O)CCCCCCCCCCC [PIX, 2-deoxy-6-O-(2-deoxy-3-O-[(3R)-3-hydroxytetradecanoyl]-2-{[(3R)-3-hydroxytetradecanoyl]amino}-4-O-phosphono-β-D-glucopyranosyl)-3-O-[(3R)-3-hydroxytetradecanoyl]-2-{[(3R)-3-hydroxytetradecanoyl]amino}-1-O-phosphono-α-D-glucopyranose] |  |  | able to cause Aβ42 degradation
